Measurements from patent publication US20070026080A1, “Manufacturing process for tigecycline” (Wyeth, priority 2005, published 2007).
Where “and” joins values, the source holds several entries; their conditions need not be identical. Identical values can stand only once.

Assay: Strength and degradation profile of tigecycline 20 mg/mL bulk solutions by reversed phase HPLC (effect of temperature, time, pH, dissolved oxygen; Runs A to O)
Assay type: physicochemical
Conditions: 20 mg/mL
Experimental: The contents of the sample vials are dissolved in diluent. The sample solution is diluted, if necessary, and chromatographed on a reversed phase column using gradient elution. Impurities are determined by comparing the impurity peak areas in the sample preparation chromatogram to the average area of tigecycline peaks in the standard preparation chromatograms obtained concomitantly.
Chromatographic Column—Length about 15 cm, inside diameter about 4.6 mm, packed with Inertsil ODS2, 5 μm size particles or equivalent.
Detector—Ultraviolet spectrophotometric detector capable of operating at 248 nm with a sensitivity of about 0.5 absorbance units full scale.
The results of additional studies to investigate the effect of processing parameters such as temperature, time, and dissolved oxygen content on the purity profile of tigecycline solutions using the following materials, methods and procedures are presented in Tables A to O.
The experiments were run in plastic glove bags under normal laboratory light conditions. Plastic glove boxes will be used to control the headspace of the beakers. The batch size was 200 mL. • 1. Prepare the glove bag with a mixture of nitrogen and air to achieve an oxygen level in the solution as per the design. • 2. Place the jacketed beaker on the magnetic stirrer. Connect it to the cooler. Set the cooler to the desired set point. • 3. Add 200 mL of SWFI in to the beaker. Allow equilibrating. Measure the temperature and oxygen content. When it reaches the desired condition, add accurately weighed API and mix until dissolved. If necessary use spatula to aid dissolution. For pH adjustments, use 4 mL of either 0.1N NaOH or 0.1N HCl and 196 mL of WFI for manufacture. • 4. After complete dissolution, Transfer about 5.5 mL of Solution in vials and stopper them. These vials will be stoppered at the appropriate headspace conditions. Place the vials in appropriate temperature conditions. • 5. Sample the vials at 1, 4, 8, 10, 12 and 24 hours. Send the samples for analysis. Freeze the 10, 12 and 24 samples at −20° C. for analysis the following day. • 6. Measure pH and record color of the solution at each time point. Results
The 1-hour samples were taken directly from the beakers. Samples for later time points were collected in stoppered vials processed in the atmosphere of the bag in order to simulate the headspace conditions then placed in water baths or refrigerator to maintain there respective temperature conditions. This was done to maintain safety in the lab. Disposable plastic glove bags require constant flow of a mixture of nitrogen and air to maintain headspace oxygen level that will result in the desired dissolved oxygen (DO) content in the sample. The pH of samples was measured at each sample points.
Strength and degradation profile was analyzed by HPLC as described above. […] Degradation was slightly higher at higher temperature condition.

[1] = Run #A, 2° C., pH 8.2, Oxygen 2.0 mg/L, hours 1,4,8,10,12,24 at r6-r11
[2] = Run #A, 2° C., pH 8.2, Oxygen 2.0 mg/L, hours 1,4,8,10,12,24 at r17-r22
[3] = Run #B, 8° C., pH 8.2, Oxygen 2.0 mg/L, hours 1,4,8,10,12,24 at r6-r11, 1 hours
[4] = Run #B, 8° C., pH 8.2, Oxygen 2.0 mg/L, hours 1,4,8,10,12,24 at r6-r11, 4 hours
[5] = Run #B, 8° C., pH 8.2, Oxygen 2.0 mg/L, hours 1,4,8,10,12,24 at r6-r11, 8 hours
[6] = Run #B, 8° C., pH 8.2, Oxygen 2.0 mg/L, hours 1,4,8,10,12,24 at r6-r11, 10 hours
[7] = Run #B, 8° C., pH 8.2, Oxygen 2.0 mg/L, hours 1,4,8,10,12,24 at r6-r11, 12 hours
[8] = Run #B, 8° C., pH 8.2, Oxygen 2.0 mg/L, hours 1,4,8,10,12,24 at r6-r11, 24 hours
[9] = Run #B, 8° C., pH 8.2, Oxygen 2.0 mg/L, hours 1,4,8,10,12,24 at r17-r22, 1 hours
[10] = Run #B, 8° C., pH 8.2, Oxygen 2.0 mg/L, hours 1,4,8,10,12,24 at r17-r22, 4 hours
[11] = Run #B, 8° C., pH 8.2, Oxygen 2.0 mg/L, hours 1,4,8,10,12,24 at r17-r22, 8 hours
[12] = Run #B, 8° C., pH 8.2, Oxygen 2.0 mg/L, hours 1,4,8,10,12,24 at r17-r22, 10 hours
[13] = Run #B, 8° C., pH 8.2, Oxygen 2.0 mg/L, hours 1,4,8,10,12,24 at r17-r22, 12 hours
[14] = Run #B, 8° C., pH 8.2, Oxygen 2.0 mg/L, hours 1,4,8,10,12,24 at r17-r22, 24 hours
[15] = Run #C, 2° C., pH 7.7, Oxygen 2 mg/L, hours 1,4,8,10,12,24 at r6-r11
[16] = Run #C, 2° C., pH 7.7, Oxygen 2 mg/L, hours 1,4,8,10,12,24 at r6-r11, 1 h hold time
[17] = Run #C, 2° C., pH 7.7, Oxygen 2 mg/L, hours 1,4,8,10,12,24 at r6-r11, 4 h hold time
[18] = Run #C, 2° C., pH 7.7, Oxygen 2 mg/L, hours 1,4,8,10,12,24 at r6-r11, 10 h hold time
[19] = Run #C, 2° C., pH 7.7, Oxygen 2 mg/L, hours 1,4,8,10,12,24 at r6-r11, 12 h hold time
[20] = Run #C, 2° C., pH 7.7, Oxygen 2 mg/L, hours 1,4,8,10,12,24 at r6-r11, 24 h hold time
[21] = Run #C, 2° C., pH 7.7, Oxygen 2 mg/L, hours 1,4,8,10,12,24 at r17-r22, 1 h hold time
[22] = Run #C, 2° C., pH 7.7, Oxygen 2 mg/L, hours 1,4,8,10,12,24 at r17-r22, 4 h hold time
[23] = Run #C, 2° C., pH 7.7, Oxygen 2 mg/L, hours 1,4,8,10,12,24 at r17-r22, 8 h hold time
[24] = Run #C, 2° C., pH 7.7, Oxygen 2 mg/L, hours 1,4,8,10,12,24 at r17-r22, 10 h hold time
[25] = Run #C, 2° C., pH 7.7, Oxygen 2 mg/L, hours 1,4,8,10,12,24 at r17-r22, 24 h hold time
[26] = Run #D, 8° C., pH 7.7, Oxygen 2.0 mg/L, hours 1,4,8,10,12,24 at r6-r11, after 1 hours

CN(C)c1cc(NC(=O)CNC(C)(C)C)c(O)c2c1C[C@H]1C[C@H]3[C@H](N(C)C)C(O)=C(C(N)=O)C(=O)[C@@]3(O)C(O)=C1C2=O [Tigecycline]
RRT 0.58 [1]: 0.06% and 0.07%
RRT 0.64 9-Amino [1]: BRL (BRL means below reporting limit (meaning less than 0.05% of tigecycline peak))
RRT 0.74 Epimer [1]: 0.26% and 0.23% and 0.18% and 0.20% and 0.19% and 0.25%
Strength [1]: 19.901 mg/mL and 19.504 mg/mL and 19.639 mg/mL and 19.610 mg/mL and 19.473 mg/mL and 19.806 mg/mL
RRT 1.12 [2]: BRL (BRL means below reporting limit (meaning less than 0.05% of tigecycline peak))
RRT 1.45 [2]: 0.06% and 0.08% and 0.07% and 0.09%
RRT 1.58 [2]: BRL (BRL means below reporting limit (meaning less than 0.05% of tigecycline peak))
RRT 1.64 Mino [2]: 0.10% and 0.11%
RRT 1.85 MW = 597 [2]: 0.06% and 0.08% and 0.07% and 0.14%
Total [2]: 0.47% and 0.76% and 0.86% and 1.26% and 1.40% and 1.86%
RRT 0.55 MW = 583 [3]: 0.11%
Strength [3]: 19.149 mg/mL
RRT 0.55 MW = 583 [4]: 0.20%
Strength [4]: 19.046 mg/mL
RRT 0.55 MW = 583 [5]: 0.27%
Strength [5]: 18.795 mg/mL
RRT 0.55 MW = 583 [6]: 0.32%
Strength [6]: 19.144 mg/mL
RRT 0.55 MW = 583 [7]: 0.29%
Strength [7]: 18.668 mg/mL
RRT 0.55 MW = 583 [8]: 0.42%
Strength [8]: 17.784 mg/mL
RRT 0.74 Epimer [9]: 0.20%
RRT 1.64 Mino [9]: 0.10%
RRT 1.67 MW = 556 [9]: 0.14%
RRT 1.85 MW = 597 [9]: 0.08%
Total [9]: 0.75%
RRT 0.74 Epimer [10]: 0.19%
RRT 1.64 Mino [10]: 0.05%
RRT 1.67 MW = 556 [10]: 0.25%
RRT 1.85 MW = 597 [10]: 0.07%
Total [10]: 1.12%
RRT 0.74 Epimer [11]: 0.23%
RRT 1.64 Mino [11]: 0.07%
RRT 1.67 MW = 556 [11]: 0.35%
Total [11]: 1.85%
RRT 0.74 Epimer [12]: 0.22%
RRT 1.64 Mino [12]: 0.11%
RRT 1.67 MW = 556 [12]: 0.29%
RRT 1.85 MW = 597 [12]: 0.09%
Total [12]: 2.38%
RRT 0.74 Epimer [13]: 0.24%
RRT 1.64 Mino [13]: 0.09%
RRT 1.67 MW = 556 [13]: 0.23%
Total [13]: 2.61%
RRT 1.67 MW = 556 [14]: 0.50%
RRT 1.85 MW = 597 [14]: 0.11%
Total [14]: 5.36%
RRT 0.12 MW = 633 [15]: BRL (BRL means below reporting limit (meaning less than 0.05% of tigecycline peak))
RRT 0.64 9-Amino [15]: BRL (BRL means below reporting limit (meaning less than 0.05% of tigecycline peak))
RRT 0.58 [16]: 0.08%
RRT 0.74 Epimer [16]: 0.20%
Strength [16]: 19.339 mg/mL
RRT 0.58 [17]: 0.06%
RRT 0.74 Epimer [17]: 0.19%
Strength [17]: 19.246 mg/mL
Strength (Run #C, 2° C., pH 7.7, Oxygen 2 mg/L, hours 1,4,8,10,12,24 at r6-r11, 8 h hold time): 19.031 mg/mL
RRT 0.74 Epimer [18]: 0.27%
Strength [18]: 19.415 mg/mL
RRT 0.58 [19]: 0.07%
RRT 0.74 Epimer [19]: 0.30%
Strength [19]: 19.048 mg/mL
RRT 0.58 [20]: 0.05%
RRT 0.74 Epimer [20]: 0.21%
Strength [20]: 19.226 mg/mL
RRT 1.12 (Run #C, 2° C., pH 7.7, Oxygen 2 mg/L, hours 1,4,8,10,12,24 at r17-r22): BRL (BRL means below reporting limit (meaning less than 0.05% of tigecycline peak))
RRT 1.45 [21]: 0.07%
RRT 1.64 Mino [21]: 0.10%
RRT 1.85 MW = 597 [21]: 0.06%
Total [21]: 0.59%
RRT 1.64 Mino [22]: 0.09%
Total [22]: 0.60%
RRT 1.45 [23]: 0.13%
RRT 1.64 Mino [23]: 0.11%
RRT 1.85 MW = 597 [23]: 0.07%
Total [23]: 0.87%
RRT 1.85 MW = 597 [24]: 0.08%
Total [24]: 1.20%
Total (Run #C, 2° C., pH 7.7, Oxygen 2 mg/L, hours 1,4,8,10,12,24 at r17-r22, 12 h hold time): 1.38%
RRT 1.45 [25]: 0.06%
Total [25]: 1.52%
RRT 0.64 9-Amino (Run #D, 8° C., pH 7.7, Oxygen 2.0 mg/L, hours 1,4,8,10,12,24 at r6-r11): BRL (BRL means below reporting limit (meaning less than 0.05% of tigecycline peak))
RRT 0.55 MW = 583 [26]: 0.08%
RRT 0.74 Epimer [26]: 0.19%
